IC50 data for 3 compounds are collected here from publication PMC10850561, “Eutypellaolides A–J, Sesquiterpene diversity expansion of the polar fungus Eutypella sp. D-1” (Frontiers in Microbiology, 2024).

The target of this experiment is T1, PTP1B (Homo sapiens, UniProt P18031).
T1 construct: gene PTPN1
T1 sequence (P18031 1-435): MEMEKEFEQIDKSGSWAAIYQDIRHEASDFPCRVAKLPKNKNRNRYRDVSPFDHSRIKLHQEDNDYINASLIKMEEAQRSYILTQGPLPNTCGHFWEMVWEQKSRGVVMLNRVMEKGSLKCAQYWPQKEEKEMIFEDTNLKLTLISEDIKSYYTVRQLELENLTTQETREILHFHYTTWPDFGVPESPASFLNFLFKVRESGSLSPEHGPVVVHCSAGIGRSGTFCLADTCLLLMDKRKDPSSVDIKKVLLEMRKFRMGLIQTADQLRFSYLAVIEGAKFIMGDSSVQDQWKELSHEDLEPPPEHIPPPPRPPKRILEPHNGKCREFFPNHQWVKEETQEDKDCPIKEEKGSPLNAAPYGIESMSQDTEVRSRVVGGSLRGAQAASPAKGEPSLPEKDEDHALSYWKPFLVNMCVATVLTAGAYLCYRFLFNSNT
The experiment can be described thus: PTP1B enzyme inhibition assay in 96-well microplates. It counts as biochemical.
Turning to `CO[C@]1(C)C2=CC3=C(CO)C(=O)OC3=C[C@]2(C)CC[C@@H]1O` [compound 5, Eutypellaolide E], the 50% inhibitory concentration (IC50) (in general, the midpoint of a concentration-inhibition curve) came to 44.8 µM.

Regarding `CC1=CCC[C@@H]2CC3=C(CO)C(=O)OC3=CC12C` (stereo partly drawn) [compound 11, eut-Guaiane], the IC50 is 43.2 µM. On to `CC1=CC(=O)C[C@@]2(C)C=C3OC(=O)C(CO)=C3C=C12` [compound 14, 2-one-13hydroxy-3,5,8,7(11)-eudesmatetraen-12,8-olide], for which the 50% inhibitory concentration (IC50) turned out to be 49.5 µM. This IC50 and that of the compound before are within 1.5-fold of each other.
